Reference: patent publication US8440724B2, “Inhibiting neurotransmitter reuptake” (Mayo Foundation for Medical Education and Research, priority 2008, dated 2013)
Read-outs that look alike come from different tables or passages of the source.

What was measured:
[1] = target: T1, human serotonin transporter (hSERT) (Homo sapiens, UniProt P31645); experiment: Radioligand binding to cloned hSERT, [3H]citalopram, HEK-293 cell membranes; conditions: for Binding at hSERT compared to PRC200-SS: in words
T1 construct: expressed in transfected cells; host or cells: HEK-293, stably transfected

[2] = target: T2, human dopamine transporter (hDAT) (Homo sapiens, UniProt Q01959); experiment: Radioligand binding to cloned hDAT, [3H]WIN35428, HEK-293 cell membranes; conditions: for Binding at hDAT compared to PRC200-SS: in words
T2 construct: expressed in transfected cells; host or cells: HEK-293, stably transfected

[3] = test system: human serotonin, norepinephrine and dopamine transporters; experiment: Transport into cells expressing human transporters: rank order of potency, comparison with rat; type: cell-based; conditions: for Potency (rank order, transport into cells expressing human transporters): from Ki values, S = 5-HT, N = NE, D = DA; for Species selectivity: blocking transport by human vs rat serotonin and dopamine transporters: human transporters in cells vs rat synaptosomal preparations (Tables 3 and 4)
[4] = target: T3, rat serotonin transporter, synaptosomal preparations (Rattus norvegicus, UniProt P31652); experiment: Inhibition of [3H]5-HT reuptake in rat brain synaptosomes (frontal cortex); type: biochemical
T3 construct: from tissue; host or cells: rat frontal cortex synaptosomes (male Sprague-Dawley)
Procedure: (§1) The dissected tissues were separately homogenized in 20 volumes (cortical) or 40 volumes (striatal) of ice-cold, oxygenated HEPES buffer 0.32 M sucrose containing 11 mM glucose (pH 7.4) in a glass Potter-Elvehjem homogenizer with Teflon® pestle (8 strokes, 900 rpm). The homogenates were centrifuged at 1,000×g for 10 minutes. The resulting supernatant was decanted and further centrifuged at 20,000×g for 20 minutes at 4° C. […] The synaptosomal protein concentration was determined by using the BCA assay (Pierce Biotechnology Inc, Rockford, Ill.), according to the manufacturer's instructions. Synaptosomal protein (1.0-2.5 mg) was suspended in 1 mL oxygenated incubation buffer as defined above. Test amine compound was pre-incubated with the synaptosomal preparation for 30 minutes at 37° C. in a shaking water bath (80 oscillations/minute).

[5] = target: T4, rat dopamine transporter, synaptosomal preparations (Rattus norvegicus, UniProt P23977); experiment: Inhibition of [3H]DA reuptake in rat brain synaptosomes (striatum); type: biochemical
T4 construct: and striatal tissues for transport of dopamine; from tissue; host or cells: rat striatum synaptosomes (male Sprague-Dawley)
Procedure: as §1

[6] = target: T5, CYP2D6 (Homo sapiens, UniProt P10635); experiment: CYP2D6 inhibition, CYP2D6/AMMC kit (BD Biosciences), fluorescent substrate; type: in vitro ADME; conditions: for Potency of inhibition at CYP2D6, in words: compared with PRC200-SS
T5 construct: purchased BD Biosciences 459200
Text: This kit includes the use of a fluorescent P450 substrate (AMMC or 3-[2-(N,N-diethyl-N-methylamino)ethyl]-7-methoxy-4-methylcoumarin) and recombinant human P450.

[7] = target: hERG (Homo sapiens, UniProt Q12809); experiment: hERG assay: block of rubidium ion (Rb+) efflux from cells expressing hERG; conditions: for Blocking of hERG channel compared with PRC200-SS: in words
Procedure: Human “ether-a-go-go” (hERG) is an ion channel. Blockade of this channel can be predictive of causing cardiac arrhythmias in humans. hERG assays were performed to measure the ability of a compound to block rubidium ion (Rb^+) efflux from cells expressing hERG. Cells were pre-loaded with Rb^+, incubated with test compound, and then exposed to a buffer that opens the channel and allows the efflux of ions. Compounds as powder were dissolved in 100% DMSO to prepare 100 mM stock solutions. […] The stocks were stored at 23° C.
The range of doses for the test compounds was 30 nM through 100,000 nM.

[8] = Geometric Mean ± SEM, rat brain synaptosomes, read-out: Inhibitor Constant (Ki), DA transport
[9] = Geometric Mean ± SEM, HCl salts, read-out: Equilibrium Dissociation Constant (KD) for Transporter Binding, hSERT (S)
[10] = Geometric Mean ± SEM, HCl salts, read-out: Equilibrium Dissociation Constant (KD) for Transporter Binding, hDAT (D)
[11] = Geometric Mean ± SEM, rat brain synaptosomes, read-out: Inhibitor Constant (Ki), 5HT transport

T5 sequence (P10635 whole entry): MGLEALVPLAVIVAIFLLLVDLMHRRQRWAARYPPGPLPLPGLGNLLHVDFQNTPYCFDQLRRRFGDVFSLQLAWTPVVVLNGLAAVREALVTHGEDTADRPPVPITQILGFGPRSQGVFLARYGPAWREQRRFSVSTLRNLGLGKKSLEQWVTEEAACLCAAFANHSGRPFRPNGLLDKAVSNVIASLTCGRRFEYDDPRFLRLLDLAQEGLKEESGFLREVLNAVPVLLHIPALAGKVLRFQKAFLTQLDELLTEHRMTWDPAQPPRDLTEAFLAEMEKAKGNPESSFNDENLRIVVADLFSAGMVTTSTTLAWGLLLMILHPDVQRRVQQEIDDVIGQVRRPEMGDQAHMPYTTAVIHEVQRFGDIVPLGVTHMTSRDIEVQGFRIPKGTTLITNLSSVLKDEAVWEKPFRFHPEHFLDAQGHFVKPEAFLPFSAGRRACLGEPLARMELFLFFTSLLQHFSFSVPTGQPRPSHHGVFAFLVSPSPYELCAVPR
T2 sequence (Q01959 whole entry): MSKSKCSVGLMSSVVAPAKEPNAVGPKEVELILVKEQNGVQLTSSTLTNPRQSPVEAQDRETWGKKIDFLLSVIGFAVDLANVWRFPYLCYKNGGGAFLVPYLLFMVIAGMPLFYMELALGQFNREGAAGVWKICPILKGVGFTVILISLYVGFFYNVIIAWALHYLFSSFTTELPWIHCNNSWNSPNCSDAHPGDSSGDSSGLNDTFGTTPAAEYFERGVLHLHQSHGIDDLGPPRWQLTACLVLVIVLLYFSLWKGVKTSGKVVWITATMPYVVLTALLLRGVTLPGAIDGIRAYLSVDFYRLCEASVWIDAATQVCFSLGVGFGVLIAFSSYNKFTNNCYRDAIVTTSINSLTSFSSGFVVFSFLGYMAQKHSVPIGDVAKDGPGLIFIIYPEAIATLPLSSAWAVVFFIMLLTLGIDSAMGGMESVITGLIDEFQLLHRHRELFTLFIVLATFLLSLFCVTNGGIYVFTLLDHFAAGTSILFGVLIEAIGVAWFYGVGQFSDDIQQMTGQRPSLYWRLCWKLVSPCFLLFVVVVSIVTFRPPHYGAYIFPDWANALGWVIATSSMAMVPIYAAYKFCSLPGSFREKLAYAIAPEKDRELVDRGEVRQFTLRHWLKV
T1 sequence (P31645 whole entry): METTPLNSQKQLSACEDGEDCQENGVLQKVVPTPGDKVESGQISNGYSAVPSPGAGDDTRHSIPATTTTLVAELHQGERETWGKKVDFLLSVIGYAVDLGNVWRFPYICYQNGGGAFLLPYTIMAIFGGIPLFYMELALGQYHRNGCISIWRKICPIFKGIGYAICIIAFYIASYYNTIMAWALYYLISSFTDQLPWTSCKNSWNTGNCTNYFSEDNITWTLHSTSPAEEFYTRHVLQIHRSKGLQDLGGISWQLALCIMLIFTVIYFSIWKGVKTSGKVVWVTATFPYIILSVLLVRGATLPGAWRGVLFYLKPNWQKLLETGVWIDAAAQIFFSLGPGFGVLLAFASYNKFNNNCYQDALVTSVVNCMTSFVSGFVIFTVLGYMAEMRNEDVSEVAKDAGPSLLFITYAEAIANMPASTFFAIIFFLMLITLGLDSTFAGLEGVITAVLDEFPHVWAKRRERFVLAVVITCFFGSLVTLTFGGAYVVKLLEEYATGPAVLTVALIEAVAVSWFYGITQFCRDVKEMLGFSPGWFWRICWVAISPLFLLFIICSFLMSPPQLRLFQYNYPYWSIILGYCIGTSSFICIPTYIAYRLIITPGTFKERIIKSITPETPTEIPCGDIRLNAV
Chain of hERG (Q12809 whole entry): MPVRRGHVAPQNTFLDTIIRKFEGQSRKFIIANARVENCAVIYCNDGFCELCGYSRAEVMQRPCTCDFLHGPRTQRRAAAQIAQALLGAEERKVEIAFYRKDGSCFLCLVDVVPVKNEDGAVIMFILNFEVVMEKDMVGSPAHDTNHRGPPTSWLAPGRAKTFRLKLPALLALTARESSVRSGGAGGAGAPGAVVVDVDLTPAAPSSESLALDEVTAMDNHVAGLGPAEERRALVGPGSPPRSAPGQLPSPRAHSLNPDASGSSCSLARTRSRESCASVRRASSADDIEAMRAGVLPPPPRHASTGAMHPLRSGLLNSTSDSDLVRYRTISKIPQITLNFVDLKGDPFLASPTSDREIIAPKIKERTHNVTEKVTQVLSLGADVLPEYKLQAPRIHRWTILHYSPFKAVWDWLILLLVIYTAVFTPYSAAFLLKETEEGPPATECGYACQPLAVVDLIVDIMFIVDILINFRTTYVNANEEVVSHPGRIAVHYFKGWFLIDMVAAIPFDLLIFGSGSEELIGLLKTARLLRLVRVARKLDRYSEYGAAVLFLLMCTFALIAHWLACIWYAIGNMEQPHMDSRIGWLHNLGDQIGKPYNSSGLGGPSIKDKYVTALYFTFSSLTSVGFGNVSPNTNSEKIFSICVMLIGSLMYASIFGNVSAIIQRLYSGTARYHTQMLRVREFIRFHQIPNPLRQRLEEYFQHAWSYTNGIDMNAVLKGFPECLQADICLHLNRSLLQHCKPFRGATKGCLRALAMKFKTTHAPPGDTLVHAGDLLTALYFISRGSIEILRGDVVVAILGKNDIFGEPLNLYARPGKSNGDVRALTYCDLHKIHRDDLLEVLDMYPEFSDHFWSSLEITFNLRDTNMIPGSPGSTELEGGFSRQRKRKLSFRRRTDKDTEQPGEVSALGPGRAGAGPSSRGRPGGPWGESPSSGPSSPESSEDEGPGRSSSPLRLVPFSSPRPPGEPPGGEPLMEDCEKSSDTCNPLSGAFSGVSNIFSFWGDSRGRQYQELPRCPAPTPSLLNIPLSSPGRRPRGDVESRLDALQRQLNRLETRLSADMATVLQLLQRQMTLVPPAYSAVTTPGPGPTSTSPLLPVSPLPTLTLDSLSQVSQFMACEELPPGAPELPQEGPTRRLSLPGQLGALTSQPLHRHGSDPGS
T3 sequence (P31652 whole entry): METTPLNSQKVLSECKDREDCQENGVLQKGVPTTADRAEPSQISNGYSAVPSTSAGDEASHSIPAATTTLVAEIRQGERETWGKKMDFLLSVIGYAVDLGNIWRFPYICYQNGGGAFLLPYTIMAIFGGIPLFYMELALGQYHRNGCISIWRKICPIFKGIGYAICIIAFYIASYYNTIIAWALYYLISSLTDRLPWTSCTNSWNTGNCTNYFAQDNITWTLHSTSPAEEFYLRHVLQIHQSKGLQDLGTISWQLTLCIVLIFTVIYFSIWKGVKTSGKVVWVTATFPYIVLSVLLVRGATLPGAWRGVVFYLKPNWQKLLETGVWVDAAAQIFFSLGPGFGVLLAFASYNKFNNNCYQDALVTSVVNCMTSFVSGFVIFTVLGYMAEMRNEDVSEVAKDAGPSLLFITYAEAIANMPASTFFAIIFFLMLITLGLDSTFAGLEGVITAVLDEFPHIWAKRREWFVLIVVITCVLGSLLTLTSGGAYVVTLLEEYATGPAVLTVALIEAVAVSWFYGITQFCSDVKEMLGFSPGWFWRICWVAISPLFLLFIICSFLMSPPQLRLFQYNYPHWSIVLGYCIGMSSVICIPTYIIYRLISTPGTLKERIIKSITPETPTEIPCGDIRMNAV
T4 sequence (P23977 whole entry): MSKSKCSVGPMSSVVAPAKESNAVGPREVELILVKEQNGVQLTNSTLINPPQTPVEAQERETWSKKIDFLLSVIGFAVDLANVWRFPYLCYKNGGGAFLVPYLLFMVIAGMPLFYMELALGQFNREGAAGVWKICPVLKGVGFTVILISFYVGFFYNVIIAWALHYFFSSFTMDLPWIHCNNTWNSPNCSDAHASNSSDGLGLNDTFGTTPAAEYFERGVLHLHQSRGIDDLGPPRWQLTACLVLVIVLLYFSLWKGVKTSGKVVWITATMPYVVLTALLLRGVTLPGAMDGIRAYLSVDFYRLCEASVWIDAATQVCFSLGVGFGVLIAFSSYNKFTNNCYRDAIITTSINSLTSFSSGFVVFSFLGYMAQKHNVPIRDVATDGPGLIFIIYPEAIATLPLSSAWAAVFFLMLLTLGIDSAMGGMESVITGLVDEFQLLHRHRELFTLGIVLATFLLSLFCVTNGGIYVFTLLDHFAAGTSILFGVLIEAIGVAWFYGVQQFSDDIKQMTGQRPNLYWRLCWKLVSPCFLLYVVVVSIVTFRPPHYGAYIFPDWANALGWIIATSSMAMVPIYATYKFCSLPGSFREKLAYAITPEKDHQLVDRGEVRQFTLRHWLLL

## CNCC(c1ccc2ccccc2c1)C(F)c1ccccc1 (racemic) [MCJ001-F-(±)-RR, (2R,3R/2S,3S)-3-fluoro-N-methyl-2-(naphthalen-2-yl)-3-phenylpropan-1-amine]
[1]
  Kd: 3.9 ± 0.1 nM
  Binding at hSERT compared to PRC200-SS: greater binding at hSERT
[2]
  Kd: 140 ± 10 nM
[3]
  Potency (rank order, transport into cells expressing human transporters): N > S > D
[4]
  Ki: 90 ± 7 nM
[5]; [8]
  Ki: 250 ± 9 nM

## CNC[C@H](c1ccc2ccccc2c1)[C@H](OCCCCCO[C@H](c1ccccc1)[C@H](CNC)c1ccc2ccccc2c1)c1ccccc1 [MCJ001-Dimer5-SS, (2S,2′S,3S,3′S)-3,3′-(pentane-1,5-diylbis(oxy))bis(N-methyl-2-(naphthalen-2-yl)-3-phenylpropan-1-amine)]
[1]; [9]
  Kd: 140 ± 30 nM
[2]; [10]
  Kd: 113 ± 6 nM
[3]
  Potency (rank order, transport into cells expressing human transporters): S > D > N
  Species selectivity: blocking transport by human vs rat serotonin and dopamine transporters: much more potent at blocking transport by the human serotonin and dopamine transporters
[4]; [11]
  Ki: 150 ± 10 nM
[5]; [8]
  Ki: 800 ± 300 nM

## CNC[C@H](c1ccc2ccccc2c1)[C@@H](F)c1ccccc1 [MCJ001-F-RS, (2S,3R)-3-fluoro-N-methyl-2-(naphthalen-2-yl)-3-phenylpropan-1-amine]
[1]
  Kd: 2.8 ± 0.3 nM
  Binding at hSERT compared to PRC200-SS: greater binding at hSERT
[2]
  Kd: 19 ± 2 nM
  Binding at hDAT compared to PRC200-SS: Enhanced binding to hDAT
[6]
  Potency of inhibition at CYP2D6, in words: markedly reduced the potency of inhibition at CYP2D6
[6]; recombinant human P450, AMMC substrate, read-out: Mean CYP2D6 (IC50)
  IC50: 160 nM
[7]
  IC50: 92.4 µM
  Blocking of hERG channel compared with PRC200-SS: weaker than PRC200-SS at blocking this channel
[3]
  Potency (rank order, transport into cells expressing human transporters): S > N > D
[4]
  Ki: 9 ± 1.5 nM
[5]
  Ki: 58 ± 6 nM

## CNC[C@@H](c1ccc2ccccc2c1)[C@H](F)c1ccccc1 [MCJ001-F-SR, (2R,3S)-3-fluoro-N-methyl-2-(naphthalen-2-yl)-3-phenylpropan-1-amine]
[1]
  Kd: 130 ± 20 nM
  Binding at hSERT compared to PRC200-SS: much more weakly at hNET and hSERT
[2]
  Kd: 36 ± 6 nM
  Binding at hDAT compared to PRC200-SS: potently binds to hDAT, in the range of that seen with PRC200-SS
[7]
  IC50: 94 µM
  Blocking of hERG channel compared with PRC200-SS: weaker than PRC200-SS at blocking this channel
[4]
  Ki: 53 ± 12 nM
[5]; [8]
  Ki: 130 ± 20 nM

## CNC[C@H](c1ccc2ccccc2c1)[C@@H](N=[N+]=[N-])c1ccccc1 [MCJ001-N3-RS, (2S,3R)-3-azido-N-methyl-2-(naphthalen-2-yl)-3-phenylpropan-1-amine]
[1]; [9]
  Kd: 124 ± 9 nM
[2]; [10]
  Kd: 190 ± 20 nM
[6]
  IC50: 4000 nM
[7]
  IC50: 39.2 µM
[3]
  Potency (rank order, transport into cells expressing human transporters): N > S > D
[4]; [11]
  Ki: 88 ± 10 nM
[5]; [8]
  Ki: 270 ± 50 nM

## CNC[C@@H](c1ccc2ccccc2c1)[C@H](N=[N+]=[N-])c1ccccc1 [MCJ001-N3-SR, (2R,3S)-3-azido-N-methyl-2-(naphthalen-2-yl)-3-phenylpropan-1-amine]
[1]; [9]
  Kd: 380 ± 40 nM
[2]; [10]
  Kd: 1440 ± 70 nM
[3]
  Potency (rank order, transport into cells expressing human transporters): S > D > N
  Species selectivity: blocking transport by human vs rat serotonin and dopamine transporters: much more potent at blocking transport by the human serotonin and dopamine transporters
[4]; [11]
  Ki: 640 ± 50 nM
[5]; [8]
  Ki: 2000 ± 300 nM

## CNC[C@H](c1ccc2ccccc2c1)[C@H](OC)c1ccccc1 [MCJ001-OMe-SS, (2S,3S)-3-methoxy-N-methyl-2-(naphthalen-2-yl)-3-phenylpropan-1-amine]
[1]; [9]
  Kd: 13 ± 2 nM
[2]
  Kd: 40.6 ± 0.8 nM
[6]
  Potency of inhibition at CYP2D6, in words: markedly reduced the potency of inhibition at CYP2D6
[3]
  Potency (rank order, transport into cells expressing human transporters): N > S > D
[4]; [11]
  Ki: 12.8 ± 0.9 nM
[5]; [8]
  Ki: 46 ± 5 nM

## CN(C)C[C@H](c1ccc2ccccc2c1)[C@H](N)c1ccccc1 [MCJ002-NH2-SS, (2S,3S)-N1,N1-dimethyl-2-(naphthalen-2-yl)-3-phenylpropane-1,3-diamine]
[1]; [9]
  Kd: 2.4 ± 0.3 nM
[1]
  Binding at hSERT compared to PRC200-SS: greater binding at hSERT
[2]
  Kd: 4.2 ± 0.2 nM
  Binding at hDAT compared to PRC200-SS: several fold more potent binding at hDAT
[2]; when the compound occupies 95% of hSERT binding sites, calculation based on occupancy theory
  Occupancy of hDAT binding sites: 92%
[7]
  IC50: 67.9 µM
